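Briefly, cells in 96-well plates were exposed to five compound concentrations for 48 h, and endpoints were estimated by linear interpolation. At the TGI there is no net growth.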
Experiments:
Experiment in all cases: DTP human tumour cell line panel, 48 h
SK-MEL-28 melanoma = test system: SK-MEL-28 melanoma
ACHN renal = test system: ACHN renal
HOP-92 NSCLC = test system: HOP-92 NSCLC
HCT-15 colon = test system: HCT-15 colon
MDA-MB-435 = test system: MDA-MB-435
OVCAR-3 ovarian = test system: OVCAR-3 ovarian
KM12 colon = test system: KM12 colon
UO-31 renal = test system: UO-31 renal
TK-10 renal = test system: TK-10 renal
BT-549 breast = test system: BT-549 breast
U251 CNS = test system: U251 CNS
SF-539 CNS = test system: SF-539 CNS
SK-MEL-5 melanoma = test system: SK-MEL-5 melanoma
MALME-3M melanoma = test system: MALME-3M melanoma
SF-295 CNS = test system: SF-295 CNS
RPMI-8226 leukemia = test system: RPMI-8226 leukemia
SK-OV-3 ovarian = test system: SK-OV-3 ovarian
OVCAR-4 ovarian = test system: OVCAR-4 ovarian
MCF7 breast = test system: MCF7 breast
HOP-62 NSCLC = test system: HOP-62 NSCLC
NCI-H226 lung = test system: NCI-H226 lung
HS 578T breast = test system: HS 578T breast
HCT-116 colon = test system: HCT-116 colon
T-47D breast = test system: T-47D breast
MDA-N = test system: MDA-N
HCC-2998 colon = test system: HCC-2998 colon
RXF 393 renal = test system: RXF 393 renal
UACC-257 melanoma = test system: UACC-257 melanoma
NCI-H522 lung = test system: NCI-H522 lung
NCI-H460 lung = test system: NCI-H460 lung
COLO 205 colon = test system: COLO 205 colon
786-0 renal = test system: 786-0 renal
CCRF-CEM leukemia = test system: CCRF-CEM leukemia
SW-620 colon = test system: SW-620 colon
OVCAR-8 ovarian = test system: OVCAR-8 ovarian
OVCAR-5 ovarian = test system: OVCAR-5 ovarian
SNB-19 CNS = test system: SNB-19 CNS
A498 renal = test system: A498 renal
SK-MEL-2 melanoma = test system: SK-MEL-2 melanoma
SN12C renal = test system: SN12C renal
PC-3 prostate = test system: PC-3 prostate
M14 melanoma = test system: M14 melanoma
DU-145 prostate = test system: DU-145 prostate
A549 NSCLC = test system: A549 NSCLC
NCI-H23 lung = test system: NCI-H23 lung
HT29 colon = test system: HT29 colon
EKVX NSCLC = test system: EKVX NSCLC
IGROV1 ovarian = test system: IGROV1 ovarian
LOX IMVI melanoma = test system: LOX IMVI melanoma
HL-60(TB) leukemia = test system: HL-60(TB) leukemia
NCI/ADR-RES ovarian = test system: NCI/ADR-RES ovarian
MDA-MB-231 breast = test system: MDA-MB-231 breast
MOLT-4 leukemia = test system: MOLT-4 leukemia
SF-268 CNS = test system: SF-268 CNS
UACC-62 melanoma = test system: UACC-62 melanoma
K-562 leukemia = test system: K-562 leukemia
CAKI-1 renal = test system: CAKI-1 renal
SR leukemia = test system: SR leukemia

Measured: TGI

C[N+]1(C)C2Cc3ccccc3C1Cc1ccccc12
> 100 µM: SK-MEL-28 melanoma | ACHN renal | HOP-92 NSCLC | HCT-15 colon | MDA-MB-435 | OVCAR-3 ovarian | KM12 colon | UO-31 renal | TK-10 renal | BT-549 breast | U251 CNS | SF-539 CNS | SK-MEL-5 melanoma | MALME-3M melanoma | SF-295 CNS | RPMI-8226 leukemia | SK-OV-3 ovarian | OVCAR-4 ovarian | MCF7 breast | HOP-62 NSCLC | NCI-H226 lung | HS 578T breast | HCT-116 colon | T-47D breast | MDA-N | HCC-2998 colon | RXF 393 renal | UACC-257 melanoma | NCI-H522 lung | NCI-H460 lung | COLO 205 colon | 786-0 renal | CCRF-CEM leukemia | SW-620 colon | OVCAR-8 ovarian | OVCAR-5 ovarian | SNB-19 CNS | A498 renal | SK-MEL-2 melanoma | SN12C renal | PC-3 prostate | M14 melanoma | DU-145 prostate | A549 NSCLC | NCI-H23 lung | HT29 colon | EKVX NSCLC | IGROV1 ovarian | LOX IMVI melanoma | HL-60(TB) leukemia | NCI/ADR-RES ovarian | MDA-MB-231 breast | MOLT-4 leukemia | SF-268 CNS | UACC-62 melanoma

O=c1cnn(C2OC(CO)C(O)C(F)C2O)c(=O)[nH]1 (stereo not given)
> 100 µM: SK-MEL-28 melanoma | ACHN renal | HOP-92 NSCLC | HCT-15 colon | MDA-MB-435 | OVCAR-3 ovarian | KM12 colon | UO-31 renal | TK-10 renal | BT-549 breast | U251 CNS | SF-539 CNS | SK-MEL-5 melanoma | MALME-3M melanoma | SF-295 CNS | RPMI-8226 leukemia | SK-OV-3 ovarian | OVCAR-4 ovarian | MCF7 breast | NCI-H226 lung | HS 578T breast | HCT-116 colon | T-47D breast | MDA-N | HCC-2998 colon | UACC-257 melanoma | K-562 leukemia | NCI-H522 lung | NCI-H460 lung | CAKI-1 renal | COLO 205 colon | 786-0 renal | CCRF-CEM leukemia | SW-620 colon | OVCAR-8 ovarian | OVCAR-5 ovarian | SNB-19 CNS | SR leukemia | A498 renal | SK-MEL-2 melanoma | SN12C renal | PC-3 prostate | M14 melanoma | DU-145 prostate | A549 NSCLC | NCI-H23 lung | HT29 colon | EKVX NSCLC | IGROV1 ovarian | LOX IMVI melanoma | HL-60(TB) leukemia | NCI/ADR-RES ovarian | MDA-MB-231 breast | SF-268 CNS | UACC-62 melanoma
